Results reported in patent publication US20240279215A1 (Cytokinetics, Incorporated, priority 2022, published 2024).
Counter-ions that a name gives are not always drawn.

Molecular target: human NAMPT (Homo sapiens (Human), UniProt P43490)
Experiment: NMN fluorescence biochemical assay (human recombinant NAMPT enzyme assay)
Procedure, shortened: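 Activation of recombinant human NAMPT (6 nM) was tested with 2.5 mM ATP, 20 μM PRPP and 150 μM nicotinamide in 50 mM HEPES pH 7.2 for 60 min at ambient temperature. NMN was derivatized with acetophenone/KOH/formic acid and read by fluorescence (355/460 nm) after 40 min.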

Chain of human NAMPT (P43490 whole entry): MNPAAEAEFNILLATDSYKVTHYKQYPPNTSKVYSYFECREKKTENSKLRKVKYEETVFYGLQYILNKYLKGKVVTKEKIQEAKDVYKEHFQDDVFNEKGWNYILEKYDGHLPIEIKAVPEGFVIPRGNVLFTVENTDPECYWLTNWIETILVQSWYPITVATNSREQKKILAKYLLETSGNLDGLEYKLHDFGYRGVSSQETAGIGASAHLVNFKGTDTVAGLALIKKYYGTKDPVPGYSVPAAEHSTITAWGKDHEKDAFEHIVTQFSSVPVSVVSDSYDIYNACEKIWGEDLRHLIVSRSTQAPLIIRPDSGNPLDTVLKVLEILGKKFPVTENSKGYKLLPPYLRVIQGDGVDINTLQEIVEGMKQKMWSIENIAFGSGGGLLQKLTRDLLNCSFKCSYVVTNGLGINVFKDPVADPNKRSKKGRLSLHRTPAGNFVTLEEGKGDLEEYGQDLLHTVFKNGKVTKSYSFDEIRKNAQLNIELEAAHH

| SMILES | AC1.4 Human [µM] | EC50 [µM] |
| --- | --- | --- |
| CC(=O)N1CCC(Cc2ccc(NC(=O)OCc3cnco3)cc2)C2CC21 (stereo not shown) [Compound 457, oxazol-5-ylmethyl (4-((2-acetyl-2-azabicyclo[4.1.0]heptan-5-yl)methyl)phenyl)carbamate] | 0.250 | 21.6 |
| O=C(Nc1ccc(CN2CCC3(CC3)C2=O)cc1)OCc1ccc(Cl)cc1 [Compound 84, (4-chlorophenyl)methyl N-[4-({4-oxo-5-azaspiro[2.4]heptan-5-yl}methyl)phenyl]carbamate] | 0.66 | 3.12 |
| O=C(Nc1ccc(CC2CCN(C3COC3)CC2)c(F)c1)OCc1cnco1 [Compound 452, oxazol-5-ylmethyl (3-fluoro-4-((1-(oxetan-3-yl)piperidin-4-yl)methyl)phenyl)carbamate] | 0.18 | 13 |
| CC(C)C(=O)N1CCC2(CC(c3ccc(NC(=O)OCc4cnco4)cc3F)C2)C1 (single isomer, unassigned) [Compound 362] | 0.05 | 4.6 |
| O=C(Nc1ccc(Cc2ccncc2)cc1)OCc1ccncn1 [Compound 349, pyrimidin-4-ylmethyl (4-(pyridin-4-ylmethyl)phenyl)carbamate] | 15.55 | 26 |
| CN(C)C(=O)N1CCC2(CC(Cc3ccc(NC(=O)OCc4cnco4)cc3F)C2)C1 (stereo not shown) [Compound 379, oxazol-5-ylmethyl (4-((6-(dimethylcarbamoyl)-6-azaspiro[3.4]octan-2-yl)methyl)-3-fluorophenyl)carbamate] | 0.12 | 2.96 |
| Cc1ccc(Cc2ccc(NC(=O)OCc3ccc(C(F)F)cc3)cc2)cn1 [Compound 328, (4-(difluoro-13-methyl)phenyl)methyl (4-((6-methylpyridin-3-yl)methyl)phenyl)carbamate] | 8.56 | 36.3 |
| CC(=O)N1CCC[C@H](c2ccc(NC(=O)OCc3cnco3)cc2)C1 [Compound 375, oxazol-5-ylmethyl (R)-(4-(1-acetylpiperidin-3-yl)phenyl)carbamate] | 1.32 | 53.8 |
| O=C(Nc1ccc(Cc2cncs2)cc1)OCc1ccc(Cl)cc1 [Compound 351, 4-chlorobenzyl (4-(thiazol-5-ylmethyl)phenyl)carbamate] | 22.18 | 37.3 |
| Cc1ccc(C(=O)NCc2ccc(NC(=O)OCc3ccncc3)cc2)cn1 [Compound 37, pyridin-4-ylmethyl (4-((6-methylnicotinamido)methyl)phenyl)carbamate] | 0.41 | 3.67 |
| O=C(Nc1ccc(CC2CCNCC2)cc1)OCc1ccc(Cl)cc1 [Compound 231, 4-chlorobenzyl (4-(piperidin-4-ylmethyl)phenyl)carbamate hydrochloride] | 2.13 | 33.8 |
| CS(=O)(=O)N1CC2(CC(c3ccc(NC(=O)OCc4cnco4)cc3F)C2)C1 [Compound 388, oxazol-5-ylmethyl (3-fluoro-4-(2-(methylsulfonyl)-2-azaspiro[3.3]heptan-6-yl)phenyl)carbamate] | 0.13 | 10.2 |
| Cc1cc(C(=O)N[C@@H](C)c2ccc(NC(=O)OCc3ccc(Cl)cc3)cc2)on1 [Compound 200, 4-chlorobenzyl (S)-(4-(1-(3-methylisoxazole-5-carboxamido)ethyl)phenyl)carbamate] | 1.78 | 2.12 |
| CN(Cc1ccc(NC(=O)OCc2ccc(Cl)cc2)cc1)C(=O)c1ccnn1C [Compound 50, (4-chlorophenyl)methyl N-(4-{[N-methyl-1-(2-methylpyrazol-3-yl)formamido]methyl}phenyl)carbamate] | 0.50 | 0.89 |
| CC(=O)N1CCC(Cc2ccc(NC(=O)OCc3cnco3)cc2)CC12CC2 (stereo not shown) [Compound 444, oxazol-5-ylmethyl (4-((4-acetyl-4-azaspiro[2.5]octan-7-yl)methyl)phenyl)carbamate] | 0.13 | 6.31 |
| CNS(=O)(=O)N1CCC(Cc2ccc(NC(=O)OCc3cnco3)cc2)CC1 [Compound 10, oxazol-5-ylmethyl (4-((1-(N-methylsulfamoyl)piperidin-4-yl)methyl)phenyl)carbamate] | 0.16 | 11.2 |
| CN(C)S(=O)(=O)N1CC2(CC(c3ccc(NC(=O)OCc4cnco4)cc3F)C2)C1 [Compound 387, oxazol-5-ylmethyl (4-(2-(N,N-dimethylsulfamoyl)-2-azaspiro[3.3]heptan-6-yl)-3-fluorophenyl)carbamate] | 0.08 | 2.76 |
| O=C(Nc1ccc(CNC(=O)c2cnco2)cc1)OCc1ccc(Cl)cc1 [Compound 187, (4-chlorophenyl)methyl N-{4-[(1,3-oxazol-5-ylformamido)methyl]phenyl}carbamate] | 1.62 | 11.2 |
| O=C(Nc1ccc(Cc2ncccn2)cc1)OCc1ccc(Cl)cc1 [Compound 279, 4-chlorobenzyl (4-(pyrimidin-2-ylmethyl)phenyl)carbamate] | 3.43 | 29 |
| Cn1ccc(C(=O)NCc2ccc(NC(=O)OCc3ccc(Cl)cc3)cc2)c1 [Compound 254, (4-chlorophenyl)methyl N-(4-{[(1-methylpyrrol-3-yl)formamido]methyl}phenyl)carbamate] | 2.64 | 15.1 |
| C[C@H](NC(=O)Cc1ncco1)c1ccc(NC(=O)OCc2ccc(Cl)cc2)cc1 [Compound 224, 4-chlorobenzyl (S)-(4-(1-(2-(oxazol-2-yl)acetamido)ethyl)phenyl)carbamate] | 2.08 | 10.1 |
| COC(=O)N1CCN(C(=O)Cc2ccc(NC(=O)OCc3ccc(Cl)cc3)cc2)CC1 [Compound 156, methyl 4-(2-(4-((((4-chlorobenzyl)oxy)carbonyl)amino)phenyl)acetyl)piperazine-1-carboxylate] | 1.31 | 9.45 |
| O=C(Nc1ccc(C2CCS(=O)(=O)CC2)cc1)OCc1ccc(Cl)cc1 [Compound 151] | 1.25 | 5.89 |

Second part, the compound after the results:

| AC1.4 Human [µM] | EC50 [µM] | SMILES |
| --- | --- | --- |
| 1.07 | 14.5 | O=C(Nc1ccc(CC2CCN(CC(F)(F)F)CC2)cc1)OCc1cncs1 [Compound 467, thiazol-5-ylmethyl (4-((1-(2,2,2-trifluoroethyl)piperidin-4-yl)methyl)phenyl)carbamate] |
| 0.07 | 3.97 | CN(C)C(=O)N1CCC2(CC(c3ccc(NC(=O)OCc4cnco4)cc3F)C2)C1 (single isomer, unassigned) [Compound 364] |
| 0.85 | 1.94 | C[C@H](NC(=O)c1ccncc1)c1ccc(NC(=O)OCc2ccc(Cl)cc2)cc1 [Compound 105, (4-chlorophenyl)methyl N-{4-[(1S)-1-(pyridin-4-ylformamido)ethyl]phenyl}carbamate] |
| 1.82 | 24.5 | O=C(Nc1ccc(CC(=O)N2CCC[C@H]2CO)cc1)OCc1ccc(Cl)cc1 [Compound 202, (4-chlorophenyl)methyl N-(4-{2-[(2S)-2-(hydroxymethyl)pyrrolidin-1-yl]-2-oxoethyl}phenyl)carbamate] |
| 0.75 | 3.47 | C[C@H](NC(=O)N1CCC1)c1ccc(NC(=O)OCc2ccc(Cl)cc2)cc1 [Compound 96] |
| 1.41 | 6.11 | O=C(Nc1ccc(Cc2ccncc2)cc1)OCc1ccncc1 [Compound 169, pyridin-4-ylmethyl (4-(pyridin-4-ylmethyl)phenyl)carbamate] |
| 0.93 | 5.53 | CN(Cc1ccc(NC(=O)OCc2ccc(Cl)cc2)cc1)C(=O)N1CCC1 [Compound 112, 4-chlorobenzyl (4-((N-methylazetidine-1-carboxamido)methyl)phenyl)carbamate] |
| 0.42 | 1.22 | CS(=O)(=O)N1CCC(Cc2ccc(NC(=O)OCc3ccc(Cl)cc3)cc2)CC1 [Compound 38, 4-chlorobenzyl (4-((1-(methylsulfonyl)piperidin-4-yl)methyl)phenyl)carbamate] |
| 1.19 | 8.23 | CC1CCN(C(=O)N[C@@H](C)c2ccc(NC(=O)OCc3ccc(Cl)cc3)cc2)CC1 [Compound 145, 4-chlorobenzyl (S)-(4-(1-(4-methylpiperidine-1-carboxamido)ethyl)phenyl)carbamate] |
| 4.12 | 20 | Cc1ccc(Cc2ccc(NC(=O)OCc3ccc(Cl)cc3)cc2)cn1 [Compound 292, 4-chlorobenzyl (4-((6-methylpyridin-3-yl)methyl)phenyl)carbamate] |
| 0.91 | 5.33 | O=C(Nc1ccc(CC(=O)N2CCCCC2)cc1)OCc1ccc(Cl)cc1 [Compound 111, (4-chlorophenyl)methyl N-{4-[2-oxo-2-(piperidin-1-yl)ethyl]phenyl}carbamate] |
| 0.13 | 9.34 | O=C(Nc1ccc(CC2CCN(C(=O)N3CCCCC3)CC2)cc1)OCc1cnco1 [Compound 461, oxazol-5-ylmethyl (4-((1-(piperidine-1-carbonyl)piperidin-4-yl)methyl)phenyl)carbamate] |
| 4.57 | 28 | Cn1ccc(CC(=O)NCc2ccc(NC(=O)OCc3ccc(Cl)cc3)cc2)n1 [Compound 295, (4-chlorophenyl)methyl N-(4-{[2-(1-methylpyrazol-3-yl)acetamido]methyl}phenyl)carbamate] |
| 0.25 | 3.5 | CC(=O)N1CC(OCc2ccc(NC(=O)OCc3ccc(Cl)cc3)cc2)C1 [Compound 16, 4-chlorobenzyl (4-(((1-acetylazetidin-3-yl)oxy)methyl)phenyl)carbamate] |
| 4.86 | 17.2 | CC(C)Cn1nccc1C(=O)NCc1ccc(NC(=O)OCc2ccc(Cl)cc2)cc1 [Compound 302, (4-chlorophenyl)methyl N-[4-({[2-(2-methylpropyl)pyrazol-3-yl]formamido}methyl)phenyl]carbamate] |
